In patent publication US12404242B2, “Compositions and methods for making and using small molecules in the treatment of cancer” (Reglagene, Inc., priority 2021, dated 2025):

What was measured:
Format in all cases: cell-based, human
LNCaP cells = assay: Cell viability (AlamarBlue), LNCaP prostate cancer cells; design: key to EC50 (μM) in LNCaP cells: Inactive: less than 50% inhibition at the highest concentration tested at 50 μM; settings: 72 hours of treatment; for EC50: Homo sapiens, LNCaP, 72 h
Protocol: (§1) In another exemplary method, half maximal effective concentration (EC50) was determined for some compounds and their isomers as disclosed herein in a variety of human cancer cell lines. In brief, cells from two prostate cancer cell lines (LNCaP, 22RV1), one glioblastoma cell line (U87), one breast cancer cell line (MCF7), a glioma cell line (LN18), a normal prostate cell line (RWPE1), and a glioblastoma cell line (T98G) were plated in a multi-well plate. After 24 hours, one of the compounds herein was added to the well at increasing concentrations. After 72 hours of treatment, cell viability was assessed using AlamrBlue® (Invitrogen) and fluorescence was read using the CLARIOstar Plus Multilabel Plate Reader (BMG Labtech). Samples were normalized to no treatment controls. EC50 values were determined using GraphPad Prism.

U87 cells = assay: Cell viability (AlamarBlue), U87 glioblastoma cells; design: key to EC50 (μM) in U87 cells: Inactive: less than 50% inhibition at the highest concentration tested at 50 μM; settings: 72 hours of treatment; for EC50: Homo sapiens, U-87 MG, 72 h
Protocol: as §1

22RV1 cells = assay: Cell viability (AlamarBlue), 22RV1 prostate cancer cells; design: key to EC50 (μM) in 22RV1 cells: Inactive: less than 50% inhibition at the highest concentration tested at 50 μM; settings: 72 hours of treatment; for EC50: Homo sapiens, 22Rv1, 72 h
Protocol: as §1

Row | EC50 (LNCaP cells) [µM] | EC50 (U87 cells) [µM] | EC50 (22RV1 cells) [µM] | EC50 (μM) in LNCaP cells (LNCaP cells) | EC50 (μM) in U87 cells (U87 cells) | EC50 (μM) in 22RV1 cells (22RV1 cells) | Structure (SMILES)
1 | 11.1 | 29 | 20 |  |  |  | COC1CCC(C(=O)NC(=O)Nc2ccc(Oc3cnc(N4CC5(COC5)C4)nc3)c(C)c2)CC1 (centres unmarked) [Compound 51, N-((4-((2-(2-oxa-6-azaspiro[3.3]heptan-6-yl)pyrimidin-5-yl)oxy)-3-methylphenyl)carbamoyl)-4-methoxycyclohexanecarboxamide]
2 |  |  |  | Inactive | Inactive | Inactive | Cc1cc(NC(=O)NC(=O)C2CC(OCC3CC3)C2)ccc1Oc1ccc(Cl)cn1 (centres unmarked) [Compound 40, N-((4-((5-chloropyridin-2-yl)oxy)-3-methylphenyl)carbamoyl)-3-(cyclopropylmethoxy)cyclobutane-1-carboxamide]
3 |  |  |  | Inactive | Inactive | Inactive | Cc1cc(NC(=O)NC(=O)C2CCC(O)CC2)ccc1Oc1ncc(Cl)cn1 (centres unmarked) [Compound 53, N-((4-((5-chloropyrimidin-2-yl)oxy)-3-methylphenyl)carbamoyl)-4-hydroxycyclohexane-1-carboxamide]
4 |  | 49 |  | Inactive |  | Inactive | COC1CC(C(=O)NC(=O)Nc2ccc(Oc3cnc(N4CCN(C)CC4)nc3)c(C)c2)C1 (centres unmarked) [Compound 35, 3-methoxy-N-((3-methyl-4-((2-(4-methylpiperazin-1-yl)pyrimidin-5-yl)oxy)phenyl)carbamoyl)cyclobutane-1-carboxamide]
5 |  |  |  | Inactive |  | Inactive | Cc1cc(NC(=O)NC(=O)C2CCCC2)ccc1Oc1ncc(Cl)cn1 [Compound 3, 1-{4-[(5-chloropyrimidin-2-yl)oxy]-3-methylphenyl}-3-cyclopentanecarbonylurea]
6 |  |  |  | Inactive | Inactive | Inactive | COC1(C(=O)NC(=O)Nc2ccc(Oc3nccs3)c(C)c2)CC1 [Compound 68, 1-methoxy-N-((3-methyl-4-(thiazol-2-yloxy)phenyl)carbamoyl)cyclopropane-1-carboxamide]
7 |  |  |  | Inactive | Inactive | Inactive | Cc1cc(NC(=O)NC(=O)C2CCC(OCC3CC3)CC2)ccc1Oc1ncc(Cl)cn1 (centres unmarked) [Compound 38, N-((4-((5-chloropyrimidin-2-yl)oxy)-3-methylphenyl)carbamoyl)-4-(cyclopropylmethoxy)cyclohexane-1-carboxamide]
8 | 1.2 | 5.5 | 5.9 |  |  |  | COC1CCC(C(=O)NC(=O)Nc2ccc(Oc3ccc(C(C)C)cn3)c(C)c2)CC1 (single isomer, unassigned) [Compound 34A, N-((4-((5-isopropylpyridin-2-yl)oxy)-3-methylphenyl)carbamoyl)-4-methoxycyclohexane-1-carboxamide]
9 |  |  |  | Inactive |  | Inactive | Cc1cc(NC(=O)NC(=O)C2CCOCC2)ccc1Oc1ncc(Cl)cn1 [Compound 4, 3-{4-[(5-chloropyrimidin-2-yl)oxy]-3-methylphenyl}-1-(oxane-4-carbonyl)urea]
10 |  |  |  |  | Inactive |  | Cc1cc(NC(=O)NC(=O)C2CC(O)C2)ccc1Oc1ccc(Cl)cn1 (centres unmarked) [Compound 80, N-((4-((5-chloropyridin-2-yl)oxy)-3-methylphenyl)carbamoyl)-3-hydroxycyclobutane-1-carboxamide]
11 |  | 0.33 |  |  |  |  | COC12CC(C(=O)NC(=O)Nc3ccc(Oc4nccs4)c(C)c3)(C1)C2 [Compound 83, 3-methoxy-N-((3-methyl-4-(thiazol-2-yloxy)phenyl)carbamoyl)bicyclo[1.1.1]pentane-1-carboxamide]
12 |  |  |  |  | Inactive |  | COC1CC1C(=O)NC(=O)Nc1ccc(Oc2ccc(Cl)cn2)c(C)c1 (centres unmarked) [Compound 82, N-((4-((5-chloropyridin-2-yl)oxy)-3-methylphenyl)carbamoyl)-2-methoxycyclopropane-1-carboxamide]
13 |  |  |  | Inactive | Inactive | Inactive | COC1(C(=O)NC(=O)Nc2ccc(Oc3ncccn3)c(C)c2)CC1 [Compound 69, 1-methoxy-N-((3-methyl-4-(pyrimidin-2-yloxy)phenyl)carbamoyl)cyclopropane-1-carboxamide]
14 |  |  |  | Inactive | Inactive | Inactive | COC1CCC(C(=O)NC(=O)Nc2ccc(Oc3ccc(C(F)(F)F)cn3)c(C)c2)CC1 (centres unmarked) [Compound 33, 4-methoxy-N-((3-methyl-4-((5-(trifluoromethyl)pyridin-2-yl)oxy)phenyl)carbamoyl)cyclohexane-1-carboxamide]
15 |  | 0.2 |  |  |  |  | COC12CC(C(=O)NC(=O)Nc3ccc(Oc4ccc(F)cn4)c(C)c3)(C1)C2 [Compound 89, N-((4-((5-fluoropyridin-2-yl)oxy)-3-methylphenyl)carbamoyl)-3-methoxybicyclo[1.1.1]pentane-1-carboxamide]
16 |  |  |  | Inactive | Inactive | Inactive | COC1(C(=O)NC(=O)Nc2ccc(Oc3ncc(Cl)cn3)c(C)c2)CC1 [Compound 66, N-((4-((5-chloropyrimidin-2-yl)oxy)-3-methylphenyl)carbamoyl)-1-methoxycyclopropane-1-carboxamide]
17 |  |  | 30.6 | Inactive | Inactive |  | COC1CC(C(=O)NC(=O)Nc2ccc(Oc3nncs3)c(C)c2)C1 (centres unmarked) [Compound 55, N-((4-((1,3,4-thiadiazol-2-yl)oxy)-3-methylphenyl)carbamoyl)-3-methoxycyclobutanecarboxamide]
18 | 19.8 | 41.5 | 37 |  |  |  | COC1CCC(C(=O)NC(=O)Nc2ccc(Oc3cncnc3)c(C)c2)CC1 (centres unmarked) [Compound 42, 4-methoxy-N-((3-methyl-4-(pyrimidin-5-yloxy)phenyl)carbamoyl)cyclohexane-1-carboxamide]
19 |  |  |  | Inactive |  | Inactive | Cc1cc(NC(=O)NC(=O)C2CCOC2)ccc1Oc1ncc(Cl)cn1 (racemic) [Compound 5, rac-1-{4-[(5-chloropyrimidin-2-yl)oxy]-3-methylphenyl}-3-[(3R)-oxolane-3-carbonyl]urea]
20 | 21.8 | 34 | 39 |  |  |  | COC1CC(C(=O)NC(=O)Nc2ccc(Oc3cncnc3)c(C)c2)C1 (centres unmarked) [Compound 43, 3-methoxy-N-((3-methyl-4-(pyrimidin-5-yloxy)phenyl)carbamoyl)cyclobutane-1-carboxamide]
21 |  |  |  | Inactive | Inactive | Inactive | O=C(NC(=O)C1CCC(OCC2CC2)CC1)Nc1ccc(Oc2ncc(Cl)cn2)c(F)c1 (centres unmarked) [Compound 37, N-((4-((5-chloropyrimidin-2-yl)oxy)-3-fluorophenyl)carbamoyl)-4-(cyclopropylmethoxy)cyclohexane-1-carboxamide]
22 | 34 | 31 | 34 |  |  |  | COC1CCC(C(=O)NC(=O)Nc2ccc(Oc3cnc(N4CCN(C)CC4)nc3)c(C)c2)CC1 (centres unmarked) [Compound 36, 4-methoxy-N-((3-methyl-4-((2-(4-methylpiperazin-1-yl)pyrimidin-5-yl)oxy)phenyl)carbamoyl)cyclohexane-1-carboxamide]
23 |  |  |  |  | Inactive | Inactive | COC1(C(=O)NC(=O)Nc2ccc(Oc3ccc(Cl)cn3)c(C)c2)CC1 [Compound 65, N-((4-((5-chloropyridin-2-yl)oxy)-3-methylphenyl)carbamoyl)-1-methoxycyclopropane-1-carboxamide]
24 |  |  |  |  | Inactive |  | COC1CC(C)(C(=O)NC(=O)Nc2ccc(Oc3ccc(Cl)cn3)c(C)c2)C1 (centres unmarked) [Compound 79, N-((4-((5-chloropyridin-2-yl)oxy)-3-methylphenyl)carbamoyl)-3-methoxy-1-methylcyclobutane-1-carboxamide]
25 |  | 2.5 | 1.65 |  |  |  | COC1CC(C(=O)NC(=O)Nc2cc(C)c(Oc3ncccn3)c(F)c2)C1 (centres unmarked) [Compound 74, N-((3-fluoro-5-methyl-4-(pyrimidin-2-yloxy)phenyl)carbamoyl)-3-methoxycyclobutane-1-carboxamide]
26 |  |  |  |  | Inactive |  | COC1CC1C(=O)NC(=O)Nc1ccc(Oc2ncc(Cl)cn2)c(C)c1 (centres unmarked) [Compound 81, N-((4-((5-chloropyrimidin-2-yl)oxy)-3-methylphenyl)carbamoyl)-2-methoxycyclopropane-1-carboxamide]
27 |  | 1.1 | 0.91 |  |  |  | COC1CC(C(=O)NC(=O)Nc2cc(C)c(Oc3ccc(F)cn3)c(F)c2)C1 (centres unmarked) [Compound 72, N-((3-fluoro-4-((5-fluoropyridin-2-yl)oxy)-5-methylphenyl)carbamoyl)-3-methoxycyclobutane-1-carboxamide]
28 |  | 22 |  |  |  |  | COC1CC(C(=O)NC(=O)Nc2cc(C)c(Oc3nccs3)c(F)c2)C1 (centres unmarked) [Compound 77, N-((3-fluoro-5-methyl-4-(thiazol-2-yloxy)phenyl)carbamoyl)-3-methoxycyclobutanecarboxamide]
29 |  |  |  |  | Inactive |  | COC1CCC(C(=O)NC(=O)Nc2ccc(Oc3ccc(C4CC4)cn3)c(C)c2)CC1 (centres unmarked) [Compound 75, N-((4-((5-cyclopropylpyridin-2-yl)oxy)-3-methylphenyl)carbamoyl)-4-methoxycyclohexane-1-carboxamide]
